Values quoted from earlier work as cited in US7410504B2, “Adducts based on cyclic compounds and the use thereof as tanning agents and curing agents” (BASF Aktiengesellschaft, priority 2003, dated 2008).

Conditions: small amounts of glutaraldehyde, from 0.5 to 0.9% by weight based on the pelt weight

## O=CCCCC=O [glutaraldehyde]
  Shrinkage temperature: ≤ 70 °C
